Source: patent US20240254087A1, “SELECTIVE, PARTIAL, AND ARRESTIN-BIASED 5-HT2A AGONISTS WITH UTILITY IN VARIOUS DISORDERS” (Saint Joseph's University, priority 2021, published 2024)

Experiments:
5-HT2C [1] = target: T1, 5-HT2C (Homo sapiens, UniProt P28335); experiment: Competitive radioligand binding (NIMH PDSP); design: expressed in transfected cells
T1 sequence (P28335 33-458): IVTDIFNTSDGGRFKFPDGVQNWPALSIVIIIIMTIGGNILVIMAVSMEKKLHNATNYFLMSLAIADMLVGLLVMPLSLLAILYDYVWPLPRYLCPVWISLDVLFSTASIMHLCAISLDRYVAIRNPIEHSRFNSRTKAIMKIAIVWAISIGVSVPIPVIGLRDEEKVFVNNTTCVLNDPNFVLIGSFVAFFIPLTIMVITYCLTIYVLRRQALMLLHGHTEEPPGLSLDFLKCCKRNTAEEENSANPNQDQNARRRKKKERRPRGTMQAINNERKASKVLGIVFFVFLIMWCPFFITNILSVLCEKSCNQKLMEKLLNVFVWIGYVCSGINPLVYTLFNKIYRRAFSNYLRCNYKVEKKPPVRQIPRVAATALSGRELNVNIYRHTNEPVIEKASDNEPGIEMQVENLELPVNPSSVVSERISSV
Protocol: (§1) Method 1: Competitive binding experiments were performed by the National Institute of Mental Health Psychoactive Drug Screening Program (NIMH PDSP) using described methods or 5-HT2A experiments performed using [3H]-ketanserin displacement in human 5-HT2A expressing membranes. Target compounds were dissolved in DMSO and an initial screen performed to assess displacement of the radioligand from target receptors at a concentration of 10,000 nM. […] For the Ki experiments, compounds were always tested in triplicate on separate plates. Each plate also contained a known ligand for the receptor as a positive control.

5-HT2B [2] = target: T2, 5-HT2B (Homo sapiens, UniProt P41595); experiment: Competitive radioligand binding (NIMH PDSP); design: expressed in transfected cells
Protocol: as §1

5-HT2A [3] = experiment: Ca2+ flux assay, 5-HT2A; type: cell-based, human; details: Gq/11 Ca2+ mobilization; higher number = skewed towards 5-HT2A
5-HT2B [4] = target: T2, 5-HT2B; experiment: Ca2+ flux assay, 5-HT2B; type: cell-based; design: expressed in transfected cells; details: for Emax: read-out: 5-HT2B Emax % 5-HT; for Emax / 5-HT2B EC50, nM: Ca2+ flux
5-HT2A [5] = target: T3, 5-HT2A (Homo sapiens, UniProt P28223); experiment: Ca2+ flux assay, 5-HT2A; type: cell-based; design: expressed in transfected cells; details: for Emax: read-out: 5-HT2A Emax % 5-HT, Ca2+ flux
5-HT2A [6] = target: T3, 5-HT2A; experiment: Competitive radioligand binding (NIMH PDSP)
Protocol: as §1

5-HT1B = 5-HT1B (Homo sapiens, UniProt P28222); experiment: Competitive radioligand binding (NIMH PDSP)
Protocol: as §1

5-HT3 = target: T4, 5-HT3 (Homo sapiens, UniProt P46098); experiment: Competitive radioligand binding (NIMH PDSP)
T4 sequence (P46098 24-478): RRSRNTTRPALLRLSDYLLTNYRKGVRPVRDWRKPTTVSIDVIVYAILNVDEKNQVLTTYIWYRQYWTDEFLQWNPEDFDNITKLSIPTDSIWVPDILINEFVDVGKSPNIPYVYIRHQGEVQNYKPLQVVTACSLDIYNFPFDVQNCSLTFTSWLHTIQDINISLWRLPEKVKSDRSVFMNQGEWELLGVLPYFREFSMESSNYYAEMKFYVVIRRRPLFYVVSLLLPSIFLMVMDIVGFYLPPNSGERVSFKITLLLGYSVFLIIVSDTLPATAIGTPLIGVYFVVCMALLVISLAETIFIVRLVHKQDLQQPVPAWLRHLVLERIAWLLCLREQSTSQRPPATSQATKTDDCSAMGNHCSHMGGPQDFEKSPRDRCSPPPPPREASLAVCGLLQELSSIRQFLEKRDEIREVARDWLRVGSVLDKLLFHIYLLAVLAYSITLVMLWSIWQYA
Protocol: as §1

5-HT1D = 5-HT1D (Homo sapiens, UniProt P28221); experiment: Competitive radioligand binding (NIMH PDSP)
Protocol: as §1

5-HT1A = target: T5, 5-HT1A (Homo sapiens, UniProt P08908); experiment: Competitive radioligand binding (NIMH PDSP)
T5 sequence (P08908 1-422): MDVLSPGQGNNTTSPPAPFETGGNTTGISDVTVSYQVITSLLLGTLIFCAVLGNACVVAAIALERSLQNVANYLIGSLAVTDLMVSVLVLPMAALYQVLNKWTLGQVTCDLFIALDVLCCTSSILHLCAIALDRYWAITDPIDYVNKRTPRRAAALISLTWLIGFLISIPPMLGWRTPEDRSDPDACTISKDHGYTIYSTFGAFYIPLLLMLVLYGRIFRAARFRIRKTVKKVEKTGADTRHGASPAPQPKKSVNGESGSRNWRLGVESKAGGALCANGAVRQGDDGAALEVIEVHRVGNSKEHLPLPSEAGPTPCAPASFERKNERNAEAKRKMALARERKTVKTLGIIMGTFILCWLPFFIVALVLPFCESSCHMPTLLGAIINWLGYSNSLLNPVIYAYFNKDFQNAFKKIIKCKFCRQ
Protocol: as §1

5-HT1e = 5-HT1e (Homo sapiens, UniProt P28566); experiment: Competitive radioligand binding (NIMH PDSP)
Protocol: as §1

5-HT2C [7] = target: T1, 5-HT2C; experiment: Ca2+ flux assay, 5-HT2C; type: cell-based; design: expressed in transfected cells; details: for EC50: 5-HT2C EC50, nM; for Emax: read-out: 5-HT2C Emax % 5-HT

T3 sequence (P28223 whole entry): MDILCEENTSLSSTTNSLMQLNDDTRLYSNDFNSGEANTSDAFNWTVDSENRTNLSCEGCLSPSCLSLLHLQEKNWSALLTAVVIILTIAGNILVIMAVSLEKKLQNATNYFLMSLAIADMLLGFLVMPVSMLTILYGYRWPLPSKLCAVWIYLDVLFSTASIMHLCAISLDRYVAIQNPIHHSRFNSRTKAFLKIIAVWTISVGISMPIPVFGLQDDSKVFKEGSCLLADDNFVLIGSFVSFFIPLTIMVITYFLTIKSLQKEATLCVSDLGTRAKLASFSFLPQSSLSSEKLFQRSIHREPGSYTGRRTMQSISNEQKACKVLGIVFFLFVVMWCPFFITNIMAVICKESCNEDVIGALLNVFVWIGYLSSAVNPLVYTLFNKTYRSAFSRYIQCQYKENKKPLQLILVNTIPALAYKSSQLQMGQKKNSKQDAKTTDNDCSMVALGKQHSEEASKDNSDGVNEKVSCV
Chain of 5-HT1D (P28221 whole entry, species assumed): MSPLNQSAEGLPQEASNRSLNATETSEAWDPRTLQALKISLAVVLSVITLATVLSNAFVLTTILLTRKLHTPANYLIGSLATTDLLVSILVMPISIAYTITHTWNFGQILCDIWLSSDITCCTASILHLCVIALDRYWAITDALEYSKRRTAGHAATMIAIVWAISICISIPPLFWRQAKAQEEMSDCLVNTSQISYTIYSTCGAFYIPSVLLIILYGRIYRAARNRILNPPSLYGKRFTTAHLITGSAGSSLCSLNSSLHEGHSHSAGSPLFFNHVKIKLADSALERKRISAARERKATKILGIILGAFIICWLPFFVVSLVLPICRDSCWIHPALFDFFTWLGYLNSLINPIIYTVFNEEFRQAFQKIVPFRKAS
T2 sequence (P41595 whole entry): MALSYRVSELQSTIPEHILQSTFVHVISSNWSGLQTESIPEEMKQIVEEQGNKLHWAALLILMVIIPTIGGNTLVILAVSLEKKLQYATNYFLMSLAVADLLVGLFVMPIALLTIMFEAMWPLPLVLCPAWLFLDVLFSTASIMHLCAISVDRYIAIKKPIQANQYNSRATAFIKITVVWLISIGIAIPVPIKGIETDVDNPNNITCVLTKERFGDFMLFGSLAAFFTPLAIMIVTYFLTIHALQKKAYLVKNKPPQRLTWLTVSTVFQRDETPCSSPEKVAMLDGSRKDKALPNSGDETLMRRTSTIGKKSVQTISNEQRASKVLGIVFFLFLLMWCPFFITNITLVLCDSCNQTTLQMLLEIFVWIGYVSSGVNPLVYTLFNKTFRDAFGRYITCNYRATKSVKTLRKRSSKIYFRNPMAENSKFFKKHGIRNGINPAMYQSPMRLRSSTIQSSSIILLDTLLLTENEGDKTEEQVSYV
Chain of 5-HT1e (P28566 whole entry, species assumed): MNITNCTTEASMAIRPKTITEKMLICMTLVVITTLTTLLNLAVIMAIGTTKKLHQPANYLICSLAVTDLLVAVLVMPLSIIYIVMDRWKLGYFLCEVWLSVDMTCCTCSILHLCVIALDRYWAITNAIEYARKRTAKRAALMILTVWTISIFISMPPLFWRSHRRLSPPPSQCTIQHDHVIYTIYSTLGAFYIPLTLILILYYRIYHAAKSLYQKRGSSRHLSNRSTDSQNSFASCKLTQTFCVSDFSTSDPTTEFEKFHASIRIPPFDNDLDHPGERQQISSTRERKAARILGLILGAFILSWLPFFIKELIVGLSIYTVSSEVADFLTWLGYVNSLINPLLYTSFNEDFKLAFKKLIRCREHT
Chain of 5-HT1B (P28222 whole entry, species assumed): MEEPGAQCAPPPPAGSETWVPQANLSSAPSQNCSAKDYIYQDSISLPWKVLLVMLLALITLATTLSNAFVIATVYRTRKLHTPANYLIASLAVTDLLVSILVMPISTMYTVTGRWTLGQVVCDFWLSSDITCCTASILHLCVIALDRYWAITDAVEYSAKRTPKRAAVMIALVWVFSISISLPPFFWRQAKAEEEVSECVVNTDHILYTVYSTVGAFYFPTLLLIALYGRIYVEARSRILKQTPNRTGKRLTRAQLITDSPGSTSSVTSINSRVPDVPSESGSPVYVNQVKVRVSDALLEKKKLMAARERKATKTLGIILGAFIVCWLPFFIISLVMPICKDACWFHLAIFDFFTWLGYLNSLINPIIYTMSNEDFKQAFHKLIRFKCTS

SMILES | Ki (5-HT2C [1]) | Ki (5-HT2B [2]) | 5-HT2A/5-HT2c Selectivity Factor ΔLog(Emax/EC50) (5-HT2A [3]) | EC50 (5-HT2B [4]) | Emax (5-HT2B [4]) | EC50 (5-HT2A [5]; 5-HT2A (pEC50 ± SEM), Ca2+ flux) | EC50 (5-HT2A [5]; 5-HT2A EC50, nM, Ca2+ flux) | Emax (5-HT2A [5]) | Ki (5-HT2A [6]) | Ki (5-HT1B) | Ki (5-HT3) | Ki (5-HT1D) | Ki (5-HT1A) | Ki (5-HT1e) | EC50 (5-HT2C [7]) | Emax (5-HT2C [7]) | 5-HT2B EC50, nM (5-HT2B [4]) | 5-HT2A EC50, nM (5-HT2A [5]; Ca2+ flux) | 5-HT2C EC50, nM (5-HT2C [7]) | 5-HT2A Emax % 5-HT (5-HT2A [5]; Ca2+ flux)
COc1cc([N+](=O)[O-])c(OC)cc1CCN [2C-N (1), 2-(2,5-dimethoxy-4-nitrophenyl)ethan-1-amine, reference compound] | 0.162 µM | 0.123 µM | 19.1 | 0.0503 µM | 72 ± 3% | 4.9 nM | 4.56 nM | 100 ± 1% | 0.0724 µM | > 10 µM | > 10 µM | 0.832 µM | 1.45 µM | 0.676 µM | 60.1 nM | 69 ± 2% |  |  |  | 
COc1cc([N+](=O)[O-])c(OC)cc1CCNCc1cccc2ccccc12 [25N-N-1-Nap (16), [2-(2,5-dimethoxy-4-nitrophenyl)ethyl][(naphthalen-1-yl)methyl]amine] | 0.00427 µM | 0.00117 µM | 5-HT2A Selective |  | < 10% |  |  | < 10% | 0.00115 µM | > 10 µM | > 10 µM | 0.871 µM | 0.24 µM | > 10 µM |  | < 10% | No activity | No activity | No activity | 
COc1cc([N+](=O)[O-])c(OC)cc1CCNCc1ccccc1 [25N-NB (2), Benzyl[2-(2,5-dimethoxy-4-nitrophenyl)ethyl]amine] |  |  | 23.6 |  | < 10% |  | 1.27 nM | 86 ± 1% |  |  |  |  |  |  | 26.2 nM | 75 ± 1% | No activity |  |  | 
COc1cc([N+](=O)[O-])c(OC)cc1CCNCc1cccc(F)c1OC [25N-NB-2-MeO-3-F (19), [2-(2,5-dimethoxy-4-nitrophenyl)ethyl][(3-fluoro-2-methoxyphenyl)methyl]amine] | 0.0407 µM | 0.0251 µM | 33.8 |  | < 10% |  | 2.35 nM | 83 ± 1% | 0.00741 µM | > 10 µM | > 10 µM | > 10 µM | 1 µM | > 10 µM | 74.5 nM | 77 ± 2% | No activity |  |  | 
COc1cc([N+](=O)[O-])c(OC)cc1CCNCc1cccc(C)c1O [25N-NB-2-OH-3-Me (18), 2-({[2-(2,5-dimethoxy-4-nitrophenyl)ethyl]amino}methyl)-6-methylphenol] | 0.00288 µM | 0.000776 µM | 5-HT2A Selective |  | < 10% |  | 1.58 nM | 55 ± 2% | 0.000479 µM | > 10 µM | > 10 µM | 1.29 µM | 0.186 µM | > 10 µM |  | < 10% | No activity |  | No activity | 
COc1cc([N+](=O)[O-])c(OC)cc1CCNCc1cccc(C)c1 [25N-NB-3-Me (22), [2-(2,5-dimethoxy-4-nitrophenyl)ethyl][(3-methylphenyl)methyl]amine] | 0.0398 µM | 0.00288 µM | 29.1 |  | < 10% |  | 2.27 nM | 54 ± 1% | 0.000209 µM | > 10 µM | > 10 µM | 0.933 µM | 1.78 µM | > 10 µM | 14.3 nM | 15 ± 2% | No activity |  |  | 
COc1cc([N+](=O)[O-])c(OC)cc1CCNCc1cccc(O)c1 [25N-NB-3-OH (21), 3-({[2-(2,5-dimethoxy-4-nitrophenyl)ethyl]amino}methyl)phenol] | 0.0832 µM | 0.0355 µM | 92.6 |  | < 10% |  | 3.32 nM | 55 ± 2% | 0.0145 µM | > 10 µM | > 10 µM | > 10 µM | 1.86 µM | > 10 µM | 49.1 nM | 53 ± 4% | No activity |  |  | 
COc1cc([N+](=O)[O-])c(OC)cc1CCNCc1ccccc1C(F)(F)F [25N-NBCF3 (14), [2-(2,5-dimethoxy-4-nitrophenyl)ethyl]({[2-(trifluoromethyl)phenyl]methyl}) amine] | 0.102 µM | 0.0589 µM | 85.5 |  | < 10% |  | 12.3 nM | ≤ 77% | 0.02 µM | > 10 µM | > 10 µM | > 10 µM | 1.07 µM | > 10 µM | 271 nM | 20 ± 2% | No activity |  |  | 77 ± 1 % 5-HT
COc1cc([N+](=O)[O-])c(OC)cc1CCNCc1ccccc1I [25N-NBI (10)] | 0.0437 µM | 0.02 µM | 406 |  | < 10% |  | 3.29 nM | 88 ± 1% | 0.00537 µM | > 10 µM | > 10 µM | > 10 µM | 1 µM | > 10 µM | 682 nM | 45 ± 2% | No activity |  |  | 
COc1cc([N+](=O)[O-])c(OC)cc1CCNCc1ccccc1[N+](=O)[O-] [25N-NBNO2 (15), [2-(2,5-dimethoxy-4-nitrophenyl)ethyl][(2-nitrophenyl)methyl]amine] | 0.282 µM | 0.191 µM | 66.8 |  | < 10% |  | 15.6 nM | ≤ 77% | 0.0813 µM | > 10 µM | > 10 µM | > 10 µM | 1.95 µM | > 10 µM | 583 nM | 36 ± 2% | No activity |  |  | 64 ± 2 % 5-HT
